Experimental data reported in patent US9987293B2, “Method for treating chronic lymphocytic leukemia” (BIONOMICS LIMITED, priority 2014, dated 2018).

What was measured:
[1] = tested on: normal peripheral lymphocytes; assay: Toxicity to normal peripheral lymphocytes (PARP cleavage, chromatin condensation, pJNK, Noxa); type: cell-based, human
Procedure: (§1) Cells were incubated for 10 min with 2 μg/mL. Hoechst 33342 at 37° C. and visualized with a fluorescent microscope. At least 200 cells were scored for each sample. The percentage of cells with condensed chromatin was recorded.
(§2) Cells were lysed in urea sample buffer [4 mol/L urea, 10% β-mercaptoethanol, 6% SDS, […] (pH 6.8), 0.01% bromphenol blue, and protease/phosphatase inhibitor cocktail] and boiled for 5 min. Proteins were subsequently separated by SDS-PAGE (10 or 15%) and transferred to polyvinylidene difluoride membrane (Millipore). Membranes were blocked with 5% nonfat milk in TBS and 0.05% Tween 20, and were probed with the appropriate primary antibody overnight. Subsequently, membranes were washed in […] and 0.05% Tween 20, and then incubated with secondary antibody conjugated to horseradish peroxidase. Proteins were visualized by enhanced chemiluminescence (Amersham). Actin was used as a loading control in Western blots.
To test the potential toxicity of EX2, normal peripheral lymphocytes were isolated from a healthy volunteer and incubated with EX2 alone or in combination with ABT-199.

CLL cells on L4.5 stroma = assay: Apoptosis of CLL cells co-incubated on CD154+ L4.5 stroma; type: cell-based, human; details: for sensitivity of stroma co-incubated CLL cells: co-incubation on stroma for 24 h
Procedure: (§3) CLL cells were obtained from consented patients at the Norris Cotton Cancer Center. Cells were purified by centrifugation in Ficoll-Paque PLUS from 10 ml, of blood. Lymphocytes were plated in RPMI 1640 plus 10% serum at 1×10^6 cells/mL after three washes in PBS+2 mmol/L EDTA. Cells were either incubated immediately with reagents or after 24 h incubation with confluent layers of CD154+ stromal cells (L 4.5) at a ratio of 5:1.
as §1
The experiments above have shown that CLL cells are usually very sensitive to EX2. However, these cells were isolated from peripheral blood, and the real problem to curing CLL is to be able to kill cells that reside in the lymph node or […] marrow niche. To mimic this niche, we have used L4.5 cells that express CD154. […] However, when ABT-199 and EX2 were combined, marked apoptosis was again observed. For example, 100 nM ABT-199 alone induced about 10% apoptosis, whereas when combined with 1 μM EX2, >60% apoptosis was observed within 6 h. The combination of 1 μM EX2 and 1 μM ABT-199 induced about 80% apoptosis. This patient's cells appeared to be more resistant than those summarized in FIG. 2 which may therefore understate the impact of this combination. In cells from another patient that were more sensitive to EX2 alone we observed greater sensitization to ABT-199; these cells were not tested on stroma.

CLL cells [2] = assay: Immunoblot of PARP cleavage, pJNK and Noxa in CLL cells; type: cell-based, human
Procedure: as §3, §2
(§4) To determine whether EX2 induces apoptosis, freshly isolated CLL cells were incubated in media containing 0-1 μM EX2. Chromatin condensation was scored as a classic marker of apoptosis. Apoptosis was observed following incubation of cells with 10-100 nM EX2 and this also correlated with the cleavage of PARP (FIG. 1). Protein lysates were also assessed for both pJNK and NOXA, both of which were increased by the same concentrations of EX2.

Jeko-1 cells = assay: Kinetics of apoptosis in Jeko-1 cells (Western blot); type: cell-based; details: Jeko-1 cells (FIG. 7)
Procedure: as §2
It was noted that in many of these experiments, PARP cleavage was incomplete at 6 h. To determine whether greater apoptosis occurred at later time points, we incubated cells for up to 24 h with EX2 (FIG. 6).

CLL cells [3] = assay: Chromatin condensation (Hoechst 33342) apoptosis in freshly isolated CLL cells; type: cell-based, human; details: 6 h
Procedure: as §3, §1, §4

CC1(C)CCC(CN2CCN(c3ccc(C(=O)NS(=O)(=O)c4ccc(NCC5CCOCC5)c([N+](=O)[O-])c4)c(Oc4cnc5[nH]ccc5c4)c3)CC2)=C(c2ccc(Cl)cc2)C1 [ABT-199, reference compound]
PARP cleavage in normal lymphocytes ([1]; healthy volunteer cells, ABT-199 alone): slight PARP cleavage | chromatin condensation in normal lymphocytes ([1]; healthy volunteer cells, ABT-199 with or without EX2): no chromatin condensation was observed | apoptosis, 100 nM alone (CLL cells on L4.5 stroma; CLL cells on stroma, 100 nM ABT-199 alone): about 10% | sensitivity of stroma co-incubated CLL cells (CLL cells on L4.5 stroma): marked resistance

CCc1cnn2c(NCc3ccc[n+]([O-])c3)cc(N3CCCC[C@H]3CCO)nc12 [Dinaciclib, reference compound]
apoptosis in normal leukocytes ([1]; healthy volunteer cells, dinaciclib alone): induced some apoptosis

COc1cc(C(=O)c2c(C)oc3c(OP(=O)([O-])[O-])c(OC)ccc23)cc(OC)c1OC.[Na+].[Na+] [EX2, Disodium 6-methoxy-2-methyl-3-(3,4,5-trimethoxybenzoyl)benzofuran-7-yl phosphate]
effect of EX2 on ABT-199-induced PARP cleavage in normal lymphocytes ([1]; EX2 combined with ABT-199): not increased | effect of EX2 on dinaciclib-induced apoptosis in normal leukocytes ([1]; EX2 combined with dinaciclib): not increased | Noxa induction in normal lymphocytes ([1]; healthy volunteer cells): no Noxa was induced | pJNK in normal lymphocytes ([1]; healthy volunteer cells): activated | PARP cleavage or chromatin condensation in normal lymphocytes ([1]; healthy volunteer cells, single agent, 6 h): no significant PARP cleavage or chromatin condensation | time to activation of JNK (CLL cells [2]; CLL cells): less than one | PARP cleavage over time (CLL cells [2]; CLL cells incubated up to 24 h (FIG. 6), by 24 h): almost total cleavage of PARP | PARP cleavage in presence of JNK inhibitor VIII (CLL cells [2]; CLL cells, 0-1 μM EX2 with JNK inhibitor VIII): completely prevented | lowest concentration at which apoptosis began to appear (CLL cells [2]; CLL cells, 6 h, FIG. 2A, pJNK and Noxa correlated): 5 nM | JNK activation and PARP cleavage after 1 h pulse treatment (CLL cells [2]; CLL cells, five hours after removing EX2, versus continuous incubation): still observed albeit slightly less | pJNK and NOXA levels (CLL cells [2]; protein lysates of CLL cells, same concentrations (10-100 nM)): increased | apoptosis, single agent at 1 μM (CLL cells on L4.5 stroma; CLL cells co-cultured on L4.5 stroma 24 h, 1 μM): no apoptosis observed | apoptosis, combination of 1 μM EX2 and 1 μM ABT-199 (CLL cells on L4.5 stroma; CLL cells on stroma): about 80% | apoptosis, 1 μM EX2 combined with 100 nM ABT-199 (CLL cells on L4.5 stroma; CLL cells on stroma, within 6 h): > 60% | sensitivity of stroma co-incubated CLL cells (CLL cells on L4.5 stroma): markedly resistant | time by which apoptosis was complete (Jeko-1 cells): up to 24 h | concentration at which apoptosis (chromatin condensation) was observed (CLL cells [3]; freshly isolated CLL cells, 0-1 μM, correlated with PARP cleavage): 10 to 100 nM | relative potency as inducer of apoptosis (CLL cells [3]; versus vinblastine and combretastatin A4, chromatin condensation and PARP cleavage): more potent inducer of apoptosis
